Data on ten compounds can be found in publication PMC10485906, “Development of a Dihydroquinoline–Pyrazoline GluN2C/2D-Selective Negative Allosteric Modulator of the N-Methyl-D-aspartate Receptor” (ACS Chemical Neuroscience, 2023).

One may read the IC50 as the concentration that inhibits the measured activity by half. Read a low IC50 as inhibition by little substance. The term kinetic solubility denotes solubility judged after dilution from a stock solution rather than from solid.

For one data set, the target named is T1, CYP2D6 (Homo sapiens, UniProt P10635).
T1 construct: purchased Corning; host or cells: insect cells (microsomes)
The experiment in a line: Fluorometric CYP450 enzyme inhibition assay, CYP2D6. The format is in vitro ADME. Particulars: n = 2 (2k n = 4).

Data set [1] in a line: Kinetic solubility in PBS (nephelometer). Type of data set: physicochemical. Conditions: Dulbecco's phosphate-buffered saline (DPBS), 25 °C, pH 7.2, aqueous buffer, kinetic from dmso stock, 1% DMSO, room temperature, n = 7. From the text:
Anticipating that the carboxylate side chain may hinder BBB penetrance, we synthesized and biologically screened a series of 2i prodrugs with ester and amide masking groups. With the classical physiochemical parameters required for brain exposure (i.e., molecular weight, MW, lipophilicity, and topological polar surface area, TPSA) and drug release mechanisms beyond the BBB in mind, we focused on simple alkyl-based promoieties. Our selected lead compound (2i), a close analogue (2a), and their corresponding prodrugs (2l–r) were studied in vitro to ascertain drug solubility, metabolic stability in liver microsomes (LMs), plasma stability, mouse brain homogenate stability, and cytochrome P450 (CYP450) inhibition (Tables S3 and S4 for predicted absorption, distribution, metabolism, and excretion or ADME parameters). […]
Methods for Kinetic Solubility Experiments
The test compounds were first dissolved in DMSO to provide stock solutions of either 30 mM or 60 mM. Kinetic solubility experiments were then performed in a 96-well microtiter plate (Clear-Bottom, Black, Corning® Costar) with a final volume of 250 µL per well in rows B-H. Each plate was initially prepared with the addition of 16 μL of DMSO to well A3, 20 μL to well A4, 27 μL to well A5, and 40 μL to all remaining wells in row A (A1 and A6-12). Next, the test compound (30 μL of DMSO stock solution) was directly added to well A2 without further modification. Moreover, the test compound (64 μL of DMSO stock solution) was diluted in well A3 to give a total volume of 80 μL. Further dilutions were then conducted by removing 60 µL from well A3 and adding it to A4, followed by removing 53 µL from well A4 and adding it to A5, followed by removing 40 µL from well A5 and adding it to A6, and sequentially removing 40 µL from the remaining wells up to A12. Well A1 served as a DMSO blank.
The sample solutions prepared in row A (2.5 µL from each well) were transferred to the corresponding wells in rows B-H. Dulbecco’s phosphate-buffered saline (DPBS, Gibco®, 1X, no Ca2+ and Mg2+, pH […]
7.1-7.3) was then added to all wells in rows B-H (30 µL each), and the 96-well plate was incubated at 25 °C for 1 min. Next, DPBS (217.5 µL) was added to all wells in rows B-H, and the 96-well plate was once more incubated at 25 °C for 2 h. This procedure provided seven replicate experiments with final concentrations of the test compound (1% DMSO in DPBS) ranging from either 300 to 0.9375 µM or 600 to 1.875 µM in rows B-H, depending on the whether a 30 mM or 60 mM DMSO stock solution was used, respectively (i.e. a 100-fold dilution from sample preparation in row A). After incubation, the plates were analyzed using a NEPHELOstar® microplate reader, and the segmental linear regression data was processed with MARS analysis software (BMG LabTech, see Supplemental Figure S4A for a representative example). […]
Synergy-S diffractometer. The crystal was kept at a steady T = 100.0(3) K during data collection. The structure was solved with the ShelXT 2018/2 (Sheldrick, 2015, Bauer and Gotz, 2021) solution program using dual methods and by using Olex2 1.5-alpha (Dolomanov et al., 2009) as the graphical interface.
The model was refined with olex2.refine 1.5-alpha (Bourhis et al., 2015) using full matrix least squares […]
which were used in all calculations. The final wR2 was 0.0983 (all data) and R1 was 0.0412 (I≥2 s(I)).

T1 sequence (P10635 whole entry): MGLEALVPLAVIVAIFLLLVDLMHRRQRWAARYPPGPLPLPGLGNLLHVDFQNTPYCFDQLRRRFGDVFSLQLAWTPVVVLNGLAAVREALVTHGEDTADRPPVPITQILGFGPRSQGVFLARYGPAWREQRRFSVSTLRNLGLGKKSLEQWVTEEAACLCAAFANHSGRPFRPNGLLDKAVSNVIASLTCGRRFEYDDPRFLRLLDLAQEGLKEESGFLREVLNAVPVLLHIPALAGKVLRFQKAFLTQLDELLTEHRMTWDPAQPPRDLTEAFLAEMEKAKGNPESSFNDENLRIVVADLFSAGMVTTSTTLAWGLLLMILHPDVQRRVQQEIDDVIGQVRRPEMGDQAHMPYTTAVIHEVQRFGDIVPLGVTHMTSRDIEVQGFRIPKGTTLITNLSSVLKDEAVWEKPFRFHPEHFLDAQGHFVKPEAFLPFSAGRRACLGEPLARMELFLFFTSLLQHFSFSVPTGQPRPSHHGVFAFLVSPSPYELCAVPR
Experimental for CYP2D6: CYP450 inhibition assays utilized microsomes from insect cells that express recombinant human CYP2D6 and CYP3A4 isoforms (Corning) with substrates of CYP2D6 (3-[2-(N,N-diethyl-N-methylammonium)-ethyl]-7-methoxy-4-methylcoumarin iodide, AMMC) and CYP3A4 (7-benzyloxy-4-trifluoromethylcoumarin, BFC) capable of producing fluorescent metabolites.[51],[52] […] A 100 mM sodium phosphate buffer was prepared and adjusted to a pH 7.4. In a separate falcon tube, a 2× enzyme–substrate (E–S) solution was prepared in phosphate buffer. The final concentrations of CYP2D6 and AMMC were 10 nM and 4 μM, respectively. The final concentrations of CYP3A4 and BFC were 20 nM and 40 μM, respectively. In a separate falcon tube, 2X solutions of the NADPH regenerating system (NRS) were prepared in phosphate buffer. The final concentrations for each NRS component in the corresponding assays were as follows: (1) CYP2D6 assay = 0.008 mM NADPH, 3.3 mM glucose-6-phosphate, and 0.4 U of glucose-6-phosphate dehydrogenase/mL and (2) CYP3A4 assay = 2.45 mM NADPH, 24.7 mM glucose-6-phosphate, and 1.25 U of glucose-6-phosphate dehydrogenase/mL.
Both enzymatic assays were conducted in a 96-well microtiter plate (Black, Corning Costar) with a final volume of 100 μL per well. Preparation of each plate began with the addition of 74 μL of the 2× E–S solution in the first well and 50 μL to all remaining wells (2–11) in the same row. […] 3-Fold serial dilutions of the test compounds were subsequently conducted by removing 25 μL from the first well and adding it to the second, followed by removing 25 μL from the second well and adding it to the third, and so forth until the 10th row. This procedure provided final concentrations for the test compound ranging from 100 to 0.01 μM across the same row (50 μL total for each well). Well 11 contained no test compound (0% inhibition and 100% activity). Well 12 contained 50 μL of substrate and test compound (100 μM) absent from the enzyme (0% activity, 100% inhibition). Wells 11 and 12 were used as controls for background fluorescence as described below. Each plate was then incubated for 30 min at 37 °C. After incubation was complete, reactions were initiated by the addition of 50 μL of 2X NRS to wells 1–12 (final well volume of 100 μL). Fluorescence measurements were immediately (<1 min) taken using a microplate reader (BioTek Synergy Neo 2). CYP2D6 was monitored at Ex/Em = 410/460 nm, and CYP3A4 was monitored at Ex/Em = 410/538 nm. Next, measurements were conducted in kinetic mode with scans every 5 min for 60 min. Two time points (30 and 60 min) were then chosen in the linear phase of the kinetic graph (reaction progression curve), and the corresponding relative fluorescence units (RFUs) at these time points were used to determine the rate of change in fluorescence according to the following equations [drawing 6] 3 [drawing 7] 4 [drawing 8] 5 where eq 3 defines the difference in RFUs between the 60 and 30 min time points, eq 4 normalizes the background-adjusted ΔRFU to no inhibitor control, and eq 5 converts % inhibition to % activity.
The resulting data were then exported and analyzed using Graph Pad Prism v7. The concentration of each test compound required to inhibit 50% substrate metabolism (IC50) was subsequently calculated from the resulting 10-point concentration–response curves (normalized fluorescence versus log[inhibitor]) using four-parameter logistic nonlinear regression (see Figure S4B for a representative example).

Compound `CC(C)OC(=O)CC(F)(F)C(=O)N1N=C(c2c(-c3ccc(Cl)cc3)c3ccccc3[nH]c2=O)CC1c1ccc(Cl)cc1` (centres unmarked) [2m] had an IC50 on CYP2D6 greater than 20 µM. In addition, the kinetic solubility at 2 h in data set [1] is 43 ± 10 µM.
As to `NC(=O)CC(F)(F)C(=O)N1N=C(c2c(-c3ccc(Cl)cc3)c3ccccc3[nH]c2=O)CC1c1ccc(Cl)cc1` (centres unmarked) [2k], the IC50 at CYP2D6 was greater than 20 µM. For the same compound, the solubility (kinetic) at 2 h in data set [1] was roughly 30 µM.
For `CNC(=O)CC(F)(F)C(=O)N1N=C(c2c(-c3ccc(Cl)cc3)c3ccccc3[nH]c2=O)CC1c1ccc(Cl)cc1` (centres unmarked) [2q], on CYP2D6, the IC50 is greater than 20 µM. The kinetic solubility at 2 h in data set [1] came to 52 ± 13 µM.
On the same counts, the results for `O=C(CC(F)(F)C(=O)N1N=C(c2c(-c3ccc(Cl)cc3)c3ccccc3[nH]c2=O)CC1c1ccc(Cl)cc1)OCc1ccccc1` (centres unmarked) [2p] are greater than 20 µM and 40 ± 12 µM.
On to `O=C(CC(F)(F)C(=O)N1N=C(c2c(-c3ccc(Cl)cc3)c3ccccc3[nH]c2=O)CC1c1ccc(Cl)cc1)OCC1CC1` (centres unmarked) [2n], for which the IC50 against CYP2D6 was greater than 20 µM. Further, the kinetic solubility at 2 h in data set [1] was found to be 27 ± 9 µM.
In the same order, the values of `O=C(O)CCC(=O)N1N=C(c2c(-c3ccc(Cl)cc3)c3ccccc3[nH]c2=O)CC1c1ccc(Cl)cc1` (centres unmarked) [2a] are 18 ± 0.8 µM and roughly 208 µM.
For the compound `O=C(O)CC(F)(F)C(=O)N1N=C(c2c(-c3ccc(Cl)cc3)c3ccccc3[nH]c2=O)CC1c1ccc(Cl)cc1` (centres unmarked) [2i], the IC50 at CYP2D6 was greater than 20 µM. The solubility (kinetic) at 2 h in data set [1] is roughly 38 µM.
In the same order, the values of `CCOC(=O)CC(F)(F)C(=O)N1N=C(c2c(-c3ccc(Cl)cc3)c3ccccc3[nH]c2=O)CC1c1ccc(Cl)cc1` (centres unmarked) [2l] are greater than 20 µM and 43 ± 18 µM.
On the same counts, the results for `CN(C)C(=O)CC(F)(F)C(=O)N1N=C(c2c(-c3ccc(Cl)cc3)c3ccccc3[nH]c2=O)CC1c1ccc(Cl)cc1` (centres unmarked) [2r] are greater than 20 µM and 43 ± 5.1 µM.
In the same order, the values of `CC(C)(C)COC(=O)CC(F)(F)C(=O)N1N=C(c2c(-c3ccc(Cl)cc3)c3ccccc3[nH]c2=O)CC1c1ccc(Cl)cc1` (centres unmarked) [2o] are greater than 20 µM and 52 ± 6.3 µM.
